Experimental data: ChEMBL document CHEMBL1201862, “PubChem BioAssay data set” (2004)
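A five-concentration, 48-hour dose response in 96-well plates underlies each endpoint, interpolated linearly between surrounding concentrations. Here, GI50 denotes the concentration required for 50% inhibition of growth.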 Active and inactive are the calls of the source. Cut-off read from the data, not from the text of the source: active = GI50 up to about 1.1 µM and inactive = higher.

Legend:
Assay in all cases: NCI anticancer screen, dose series, 48 h
[1] = test system: A498
[2] = test system: SNB-75
[3] = test system: RPMI-8226
[4] = test system: SR
[5] = test system: Hs-578T
[6] = test system: OVCAR-4
[7] = test system: HCT-116
[8] = test system: U-251
[9] = test system: UACC-257
[10] = test system: SF-539
[11] = test system: M14
[12] = test system: MDA-MB-231
[13] = test system: HCT-15
[14] = test system: HOP-92
[15] = test system: MDA-MB-435
[16] = test system: MDA-N
[17] = test system: IGROV-1
[18] = test system: MOLT-4
[19] = test system: KM12
[20] = test system: ACHN
[21] = test system: UACC-62
[22] = test system: EKVX
[23] = test system: HT-29
[24] = test system: TK-10
[25] = test system: SK-OV-3
[26] = test system: CCRF-CEM
[27] = test system: Malme-3M
[28] = test system: NCI-H23
[29] = test system: COLO 205
[30] = test system: 786-0
[31] = test system: SN12C
[32] = test system: NCI/ADR-RES
[33] = test system: SK-MEL-5
[34] = test system: HOP-62
[35] = test system: SK-MEL-2
[36] = test system: A549
[37] = test system: T47D
[38] = test system: RXF 393
[39] = test system: SF-295
[40] = test system: MCF7
[41] = test system: UO-31
[42] = test system: OVCAR-3
[43] = test system: OVCAR-8
[44] = test system: PC-3
[45] = test system: OVCAR-5
[46] = test system: HCC 2998
[47] = test system: LOX IMVI
[48] = test system: NCI-H522
[49] = test system: NCI-H226
[50] = test system: SW-620
[51] = test system: SK-MEL-28
[52] = test system: HL-60
[53] = test system: NCI-H460
[54] = test system: SNB-19
[55] = test system: K562
[56] = test system: SF-268
[57] = test system: CAKI-1

With `CCCCCCCCCCCCCCCCCCOC[C@H](COP(=O)(O)O[C@H]1[C@H](O)[C@@H](O)[C@H](O)C[C@H]1O)OC` the GI50 [1] was > 100 µM (inactive), the GI50 [2] was 19.2 µM (inactive) and the GI50 [3] was 22.1 µM (inactive). The GI50 [4] was 15.8 µM (inactive).
`COC(=O)CCCc1ccc2c(c1)CC1(Cc3ccccc3C1)C2` was tested, and the GI50 [5] was > 100 µM (inactive), the GI50 [6] was 63 µM (inactive) and the GI50 [7] was 26 µM (inactive). The GI50 [8] was > 100 µM (inactive), the GI50 [9] was 32.2 µM (inactive) and the GI50 [10] was > 100 µM (inactive). The GI50 [11] was 44.4 µM (inactive), the GI50 [12] was > 100 µM (inactive) and the GI50 [13] was 6.28 µM. The GI50 [14] was > 100 µM (inactive), the GI50 [15] was 20.6 µM (inactive) and the GI50 [16] was 23.2 µM (inactive). The GI50 [17] was > 100 µM (inactive), the GI50 [1] was 59.2 µM (inactive) and the GI50 [18] was 0.333 µM (active). The GI50 [19] was > 100 µM (inactive), the GI50 [20] was 75.3 µM (inactive) and the GI50 [21] was > 100 µM (inactive). The GI50 [22] was > 100 µM (inactive), the GI50 [23] was 31 µM (inactive) and the GI50 [24] was > 100 µM (inactive). The GI50 [25] was > 100 µM (inactive), the GI50 [26] was 29.6 µM (inactive) and the GI50 [27] was 87.1 µM (inactive). For the same compound, the GI50 [28] was 46.3 µM (inactive), the GI50 [29] was 26.3 µM (inactive) and the GI50 [30] was > 100 µM (inactive). For the same compound, the GI50 [31] was 88.5 µM (inactive), the GI50 [32] was 80 µM (inactive) and the GI50 [33] was 20.1 µM (inactive). The GI50 [34] was > 100 µM (inactive), the GI50 [35] was 19.5 µM (inactive) and the GI50 [36] was 58.9 µM (inactive). For the same compound, the GI50 [37] was > 100 µM (inactive), the GI50 [38] was 77.1 µM (inactive) and the GI50 [39] was > 100 µM (inactive). The GI50 [40] was 53.6 µM (inactive), the GI50 [3] was 28.4 µM (inactive) and the GI50 [41] was 86.1 µM (inactive). For the same compound, the GI50 [42] was 62.2 µM (inactive), the GI50 [43] was 70.1 µM (inactive) and the GI50 [44] was 41.1 µM (inactive). For the same compound, the GI50 [45] was > 100 µM (inactive), the GI50 [46] was 70.1 µM (inactive) and the GI50 [47] was 40.3 µM (inactive). For the same compound, the GI50 [48] was 47.6 µM (inactive) and the GI50 [49] was > 100 µM (inactive).
In the case of `CC=C/C=C/[C@@H]1O[C@](O)([C@H](CC)C(=O)NC/C=C/C=C(\C)[C@@H](OC)[C@@H](C)[C@@H]2O[C@H](/C=C/C=C/C=C(\C)C(=O)c3c(O)cc[nH]c3=O)[C@H](O)[C@@H]2O)[C@H](O)[C@H](O)C1(C)C`, the GI50 [5] is reported as 43.4 µM (inactive), the GI50 [6] is reported as > 100 µM (inactive) and the GI50 [50] is reported as > 100 µM (inactive). The GI50 [51] was > 100 µM (inactive), the GI50 [8] was > 100 µM (inactive) and the GI50 [9] was > 100 µM (inactive). For the same compound, the GI50 [10] was > 100 µM (inactive), the GI50 [11] was > 100 µM (inactive) and the GI50 [52] was 93.5 µM (inactive). For the same compound, the GI50 [53] was 92.7 µM (inactive), the GI50 [54] was > 100 µM (inactive) and the GI50 [13] was > 100 µM. The GI50 [14] was > 100 µM (inactive), the GI50 [15] was > 100 µM (inactive) and the GI50 [17] was > 100 µM (inactive). For the same compound, the GI50 [1] was > 100 µM (inactive), the GI50 [18] was 73.6 µM (inactive) and the GI50 [19] was 72.6 µM (inactive). For the same compound, the GI50 [20] was > 100 µM (inactive), the GI50 [21] was > 100 µM (inactive) and the GI50 [22] was > 100 µM (inactive). The GI50 [55] was > 100 µM (inactive), the GI50 [56] was > 100 µM (inactive) and the GI50 [23] was > 100 µM (inactive). For the same compound, the GI50 [24] was > 100 µM (inactive), the GI50 [25] was > 100 µM (inactive) and the GI50 [27] was 94.2 µM (inactive). The GI50 [28] was > 100 µM (inactive), the GI50 [32] was > 100 µM (inactive) and the GI50 [34] was > 100 µM (inactive). For the same compound, the GI50 [35] was > 100 µM (inactive), the GI50 [36] was > 100 µM (inactive) and the GI50 [2] was > 100 µM (inactive). For the same compound, the GI50 [39] was 69.7 µM (inactive), the GI50 [40] was > 100 µM (inactive) and the GI50 [3] was 88.7 µM (inactive). For the same compound, the GI50 [41] was > 100 µM (inactive), the GI50 [42] was > 100 µM (inactive) and the GI50 [43] was 72.3 µM (inactive). The GI50 [4] was > 100 µM (inactive), the GI50 [44] was > 100 µM (inactive) and the GI50 [45] was > 100 µM (inactive). For the same compound, the GI50 [46] was > 100 µM (inactive) and the GI50 [48] was > 100 µM (inactive).
For `CN(C)CCCNC(=O)CCNC(=O)c1cc(NC(=O)c2cc(NC(=O)c3cc(NC(=O)CCCNC(=O)c4cc(NC(=O)c5cc(NC(=O)c6nccn6C)cn5C)cn4C)cn3C)cn2C)cn1C`, the GI50 [5] was > 100 µM (inactive), the GI50 [6] was > 100 µM (inactive) and the GI50 [7] was > 100 µM (inactive). For the same compound, the GI50 [50] was > 100 µM (inactive), the GI50 [51] was > 100 µM (inactive) and the GI50 [8] was > 100 µM (inactive). For the same compound, the GI50 [9] was > 100 µM (inactive), the GI50 [10] was > 100 µM (inactive) and the GI50 [11] was > 100 µM (inactive). For the same compound, the GI50 [52] was > 100 µM (inactive), the GI50 [53] was > 100 µM (inactive) and the GI50 [54] was > 100 µM (inactive). For the same compound, the GI50 [12] was > 100 µM (inactive), the GI50 [13] was > 100 µM and the GI50 [14] was > 100 µM (inactive). The GI50 [15] was > 100 µM (inactive), the GI50 [16] was > 100 µM (inactive) and the GI50 [17] was > 100 µM (inactive). The GI50 [1] was > 100 µM (inactive), the GI50 [57] was > 100 µM (inactive) and the GI50 [18] was > 100 µM (inactive). For the same compound, the GI50 [19] was > 100 µM (inactive), the GI50 [20] was > 100 µM (inactive) and the GI50 [22] was > 100 µM (inactive). The GI50 [55] was > 100 µM (inactive), the GI50 [56] was > 100 µM (inactive) and the GI50 [23] was > 100 µM (inactive). The GI50 [24] was > 100 µM (inactive), the GI50 [25] was > 100 µM (inactive) and the GI50 [26] was > 100 µM (inactive). For the same compound, the GI50 [27] was > 100 µM (inactive), the GI50 [28] was > 100 µM (inactive) and the GI50 [29] was > 100 µM (inactive). The GI50 [30] was > 100 µM (inactive), the GI50 [31] was > 100 µM (inactive) and the GI50 [32] was > 100 µM (inactive). For the same compound, the GI50 [33] was > 100 µM (inactive), the GI50 [34] was > 100 µM (inactive) and the GI50 [35] was > 100 µM (inactive). For the same compound, the GI50 [36] was > 100 µM (inactive), the GI50 [2] was > 100 µM (inactive) and the GI50 [38] was > 100 µM (inactive). For the same compound, the GI50 [39] was > 100 µM (inactive), the GI50 [40] was > 100 µM (inactive) and the GI50 [3] was > 100 µM (inactive). The GI50 [41] was > 100 µM (inactive), the GI50 [42] was > 100 µM (inactive) and the GI50 [43] was > 100 µM (inactive). For the same compound, the GI50 [44] was > 100 µM (inactive), the GI50 [45] was > 100 µM (inactive) and the GI50 [46] was > 100 µM (inactive). For the same compound, the GI50 [47] was > 100 µM (inactive), the GI50 [48] was > 100 µM (inactive) and the GI50 [49] was > 100 µM (inactive).
